From patent US20210128667A1, “IMMUNOPROTEASOME INHIBITORS AND IMMUNOSUPPRESSIVE AGENT IN THE TREATMENT OF AUTOIMMUNE DISORDERS” (KEZAR LIFE SCIENCES, priority 2017, published 2021)

What was measured:
[1] = test system: NZB/WF1 mice with established nephritis; assay: NZB/W F1 mouse model of established nephritis: proteinuria (urine dipsticks) and survival; type: in vivo; conditions: 2.5 mg/kg KZR-616 SC QW, 30 mg/kg QDx7 PO MMF, in comparison with the untreated mice
Description: NZB/W Fl mice were purchased from Jackson Laboratories. All mice were housed in the animal facility at Kezar Life Sciences. All experiment protocols were reviewed and approved by the Kezar Committee on Animal Resources. NZB/WF1 mice with established nephritis (24 weeks of age with duratble proteinuria ≥1+ proteinuria) were treated with vehicle alone, 2.5 mg/kg KZR-616 SC QW, 30 mg/kg QDx7 PO MMF or the combination of 2.5 mg/kg KZR-616 SC QW KZR-616 and 30 mg/kg QDx7 PO MMF. Proteinuria was monitored weekly once with urine dipsticks (Uristix by Bayer) and survival was observed.
To investigate immunoproteasome inhibition combined with the standard of care treatment MMF, NZB/w mice were administered vehicle alone, 2.5 mg/kg KZR-616 SC QW, 30 mg/kg QDx7 PO MMF or the combination of KZR-616 and MMF.

[2] = in vivo; cited from earlier work
immune effector cells [3] = conditions: cited from earlier work
[4] = test system: animal models of autoimmune disorders; conditions: animal models including RA and SLE; cited from earlier work
[5] = test system: patients with refractory SLE and LN; conditions: patients who had failed standard immunosuppressive therapies; cited from earlier work
immune effector cells [6] = conditions: cited from earlier work; remark: listed apart in the source
[7] = test system: mouse models of multiple sclerosis and SLE; conditions: in vivo; cited from earlier work
immunoproteasome [8] = molecular target: immunoproteasome (Mus musculus, UniProt O35955+P28063+P28076); conditions: upon administration to mice; cited from earlier work
mouse models of RA = conditions: doses one tenth of the maximum tolerated dose (MTD); cited from earlier work
[9] = molecular target: LMP7 subunit of the immunoproteasome (Homo sapiens, UniProt P28062); assay: In vitro inhibition of immunoproteasome subunits; type: biochemical
immune cell types = assay: In vitro immune cell function (cytokine production, T-cell subsets, plasma cells, autoantibodies); type: cell-based
non-proteasomal targets = assay: Broad diversity panel of biochemical assays (110 receptor/ligand and enzyme assays)
immunoproteasome [10] = molecular target: T1, immunoproteasome (Rattus norvegicus, UniProt P28064+P28077+Q4KM35); assay: Immunoproteasome inhibition in blood and tissues after administration to rats; type: in vivo; conditions: administered to rats
T1 construct: from tissue; host or cells: blood and tissues of dosed rats

immunoproteasome [11] = molecular target: T2, immunoproteasome (Homo sapiens, UniProt P28062+P28065+P40306); assay: Immunoproteasome inhibition in human cells in vitro; type: cell-based
T2 construct: endogenous in cells

immunoproteasome [12] = assay: Immunoproteasome inhibition in blood and tissues after administration to monkeys; type: in vivo; conditions: administered to monkeys

For `COc1c(C)c2c(c(O)c1C/C=C(\C)CCC(=O)OCCN1CCOCC1)C(=O)OC2` [MMF, mycophenolate mofetil], the level of proteinuria [1] was “significantly reduced the level of proteinuria” and the survival [1] was “increased survival”.
For `CC(C)C[C@H](NC(=O)[C@H](Cc1ccccc1)NC(=O)c1cnccn1)B(O)O` [bortezomib], the peripheral neuropathy [2] is given as “dose limiting side effect of peripheral neuropathy”, the cytokine release (immune effector cells [3]) is given as “blocks cytokine release from immune effector cells” and the anti-inflammatory activity [4] is given as “demonstrated anti-inflammatory activity”. For the same compound, the clinical activity [5] was “shown to have clinical activity”.
For `COc1ccc(C[C@H](NC(=O)[C@H](C)NC(=O)CN2CCOCC2)C(=O)N[C@@H](Cc2ccccc2)C(=O)[C@]2(C)CO2)cc1` [ONX 0914], the autoantibody formation (immune effector cells [6]) is given as “blocked autoantibody formation”, the “number and activity of inflammatory T-cell subsets such as Th1 and Th17” value (immune effector cells [6]) is given as “reduced the number and activity of inflammatory T-cell subsets” and the “number of regulatory T-cells (Treg)” value (immune effector cells [6]) is given as “increased the number of regulatory T-cells”. The cytokine production (immune effector cells [6]; immune effector cells) was “inhibited cytokine production in immune effector cells”, the “activity and tolerability compared with bortezomib” value [7] was “equivalent activity but better tolerability than bortezomib” and the therapeutic activity [7] was “therapeutically active”. The “inhibition of the immunoproteasome” value (immunoproteasome [8]) was “selectively inhibits the immunoproteasome” and the “joint inflammation, cytokine production and joint damage” value (mouse models of RA) was “prevent joint-specific inflammation, reduce cytokine production, and ameliorate joint damage”.
With `COc1ccc([C@@H](O)[C@H](NC(=O)[C@H](C)NC(=O)CN2CCOCC2)C(=O)N[C@@H](CC2=CCCC2)C(=O)[C@@]2(C)CO2)cc1` [KZR-616] the level of proteinuria [1] was “significantly reduced the level of proteinuria”, the survival [1] was “increased survival” and the “mechanism of inhibition of immunoproteasome subunits” value [9] was “irreversible mechanism”. For the same compound, the “inhibition of the LMP7 subunit” value ([9]; in vitro, selectivity relative to(35)) was “potent and selective inhibition”, the “activity of inflammatory T-helper cell subsets” value (immune cell types) was “reduces the activity of inflammatory T-helper cell subsets” and the “number of regulatory T-cells” value (immune cell types) was “increases the number of regulatory T-cells”. For the same compound, the “plasma cell formation and autoantibody production” value (immune cell types) was “blocks plasma cell formation and autoantibody production”, the cytokine production (immune cell types; multiple immune cell types) was “blocks cytokine production across multiple immune cell types” and the “inhibition of non-proteasomal targets” value (non-proteasomal targets) was “did not inhibit any non-proteasomal targets”. For the same compound, the “inhibition of the immunoproteasome in blood and tissues” value (immunoproteasome [10]) was “potent and selective inhibition in blood and tissues”, the “inhibition of the immunoproteasome” value (immunoproteasome [11]) was “potent and selective inhibition of the immunoproteasome” and the “inhibition of the immunoproteasome in blood and tissues” value (immunoproteasome [12]) was “potent and selective inhibition in blood and tissues”.
In the case of `CC(C)C[C@H](NC(=O)[C@H](CCc1ccccc1)NC(=O)CN1CCOCC1)C(=O)N[C@@H](Cc1ccccc1)C(=O)N[C@@H](CC(C)C)C(=O)[C@@]1(C)CO1` [carfilzomib], the peripheral neuropathy [2] is given as “Peripheral neuropathy is not induced”.
